# Patent US20050234113A1, “Antioxidant and radical scavenging activity of synthetic analogs of desferrithiocin” (University of Florida Research Foundation, Inc., priority 2002, published 2005)
# Values joined by “and” are separate entries in the source; they are usually repeats but may differ in a detail not shown here. Equal values may be shown once. “Also recorded” adds a separate entry of the source.
# Assays:
# [1] = Prevention of iron-mediated oxidation of ascorbate (ascorbate-mediated reduction of Fe(III)); conditions: ascorbate 100 μM, FeCl3 30 μM, pH 7.4, ligand/Fe ratios 0-3, 40 min
# Experimental: (§1) The iron chelators were tested for their ability to diminish the iron-mediated oxidation of ascorbate by the method of Dean and Nicholson (Free Radical Res. 20, 83-101 (1994)). Briefly, a solution of freshly prepared ascorbate (100 μM) in sodium phosphate buffer (5 mM, pH 7.4) was incubated in the presence of FeCl3 (30 μM) and chelator (ligand/Fe ratios varied from 0-3) for 40 min. The A265 was read at 10 and 40 min; the ΔA265 in the presence of ligand was compared to that in its absence.
# The role of chelators in either inhibition or promotion of the Fenton reaction is related to their capacity to prevent Fe(III) from being reduced to Fe(II). Fe(II) is required for the reduction of H2O2 to HO. and HO^−. The assay involves spectrophotometrically monitoring the disappearance of ascorbate at pH 7.4 in the presence of FeCl3 and chelator at several ligand/Fe ratios. Under these conditions, ascorbate is oxidized to an L-ascorbyl radical anion. This anion then disproportionates to dehydroascorbic acid and ascorbate.
# as §1, with “chelators nitrilotriacetic acid (NTA), 1,2-dimethyl-3-hydroxypyridin-4-one (L1), desferrioxamine B (DFO), (S)-4′-(HO)-DADMDFT, and (S,S)-1,11-Bis[5-(4-carboxyl-4,5-dihydro-1,3-thiazol-2-yl)-2,4-dihydroxyphenyl]-4,8-dioxaundecane (BDU)” for “chelators”, “Nicholson, Free” for “Nicholson (Free”, “20:” for “20,”, “(1994).” for “(1994)).”
# The measurement examines the disappearance of ascorbate. It is known that DFO, a hydroxamate chelator that forms a 1:1 complex with Fe(III) at a formation constant of approximately 10^31 M^−1, prevents ascorbate-mediated reduction of Fe(III); it serves as a positive control in the present study. Both NTA and L1 promote ascorbate-mediated reduction of Fe(III) and serve as negative controls.
# [2] = Quenching of the ABTS radical cation
# Experimental: The iron chelators were tested for their ability to quench the radical cation formed from 2,2′-azinobis(3-ethylbenzothiazoline-6-sulfonic acid) (ABTS) by the method of Re et al. in Free Radic. Biol. Med. 26, 1231-1237 (1999). Briefly, a stock solution of ABTS radical cation was generated by mixing ABTS (10 mM, 2.10 mL) with K2S2O8 (8.17 mM, 0.90 mL) in H2O and […] deep blue-green ABTS radical cation was diluted in sufficient sodium phosphate (10 mM, pH 7.4) to give an A734 of about 0.900. Test compounds were added to a final concentration ranging from 1.25 to 15 μM, and the decrease in A734 was read after 1, 2, 4 and 6 min. The reaction was largely complete by 1 min, but the data presented are based on a 6-min reaction time.
# In this assay, a fairly stable radical cation, ABTS^+, was examined, and Trolox, an analog of vitamin E, was used as a positive control. Briefly, the procedure involved generating the blue-green chromophore by the reaction of ABTS with K2S2O8. The radical has absorption maxima at λ=415, 645, 734, and 815 nm. The change in absorbance at 734 nm was noted 6 min after addition of the chelator of interest at various concentrations, and the slope of the ΔA734 vs. ligand concentration line was calculated.
# The iron chelators were tested for their ability to quench the radical cation formed from 2,2′-azinobis(3-ethylbenzothiazoline-6-sulfonic acid) (ABTS) by a published method (Re, R., et al., Free Radical Biol. Med. 26:1231-1237 (1999). Briefly, a stock solution of ABTS radical cation was generated by mixing ABTS (10 mM, 2.10 mL) with K2S2O8 (8.17 mM, 0.90 mL) in H2O and allowing the solution to sit in the dark at room temperature for 18 hours. This stock solution of deep blue-green ABTS radical cation was diluted in sufficient sodium phosphate (10 mM, pH 7.4) to give an A734 of about 0.900. Test compounds were added to a final concentration ranging from 1.25 to 15 μM, and the decrease in A734 was read after 1, 2, 4 and 6 min. The reaction was largely complete by 1 min, but the data presented are based on a 6-min. reaction time.
# This radical cation decolorization assay utilizes the pre-formed radical monocation of 2,2′-azinobis(3-ethylbenzothiazoline-6-sulfonic acid) (ABTS) and has been used to evaluate the antioxidant capacity of a large number of compounds and mixtures. Briefly, the change in absorbance of the blue-green chromophore was recorded after the addition of the chelator of interest at each of the different concentrations, and the slope of the ΔA734 vs. ligand concentration line was calculated. The positive control for this reaction was Trolox, an analogue of vitamin E. The decrease in A734 as a function of ligand concentration is the comparitor among the five compounds evaluated. Trolox, L1, DFO, (S)-4′-(HO)-DADMDFT and BDU (Table 3). All four of the iron chelators performed better than Trolox; DFO≈BDU>(S)-4′-(HO)-DADMDFT>L1>Trolox. Thus, all of these ligands could be expected to serve as excellent radical scavengers.
# iron [3] = experiment: Iron clearance in the non iron-overloaded, bile duct-cannulated rodent model; type: in vivo, Sprague-Dawley rats
# Experimental: Briefly, male Sprague-Dawley rats averaging 450 g were housed in Nalgene plastic metabolic cages during the experimental period and given free access to water. The animals were anesthetized using sodium pentobarbital (55 mg/kg) administered intraperitoneally. The bile duct was cannulated using 22-gauge polyethylene tubing. The cannula was inserted into the duct about 1 cm from the duodenum and tied snugly in place. After threading through the shoulder, the cannula was passed from the rat to the swivel inside a metal torque-transmitting tether, which was attached to a rodent jacket around the animal's chest. The cannula was directed from the rat to a Gilson microfraction collector (Middleton, Wis.) by a fluid swivel mounted above the metabolic cage. Bile samples were collected at 3 hour intervals for 24 hours. The urine sample was taken at 24 hours and handling was as previously described. (Bergeron, R. J., et al., J. Med. Chem. 34:2072-2078 (1991).
# (§2) The iron chelators were solubilized in 40% Cremophor RH-40/water (v/v) and given orally and subcutaneously to the rats at the doses shown in Table 4. In the primates, DFO was dissolved in sterile H2O at a concentration of 50 or 100 mg/mL and given orally or subcutaneously at a volume of 1 ml/kg. The desferrithiocin analogues were solubilized in 40% Cremophor RH-40/water (v/v) and given orally to the monkeys at the doses shown in Table 4. However, the desferrithiocin analogues were administered subcutaneously as either a suspension in distilled H2O or as their sodium salts in solution as indicated in Table 4.
# (§3) Iron clearance studies were carried out both in the non iron-overloaded, bile duct-cannulated rodent model and in the iron-overloaded Cebus apella monkey, and the results are reported as iron clearing efficiency (Table 4). This number is generated by dividing the net iron clearance [total iron excretion (bile or stool plus urine) minus background] by the theoretical iron clearance and multiplying by 100. The theoretical iron clearance is based on a 2:1 metal complex stoichiometry for 4′-(HO)-DADMDFT, a 1:1 stoichiometry for DFO, and a 1:1 stoichiometry for BDU, as shown in the Job's plot (FIG. 5). Data are presented as the mean±the standard error of the mean. The drugs were administered both orally (po) and subcutaneously (sc) to the rodents and primates; the positive control was DFO.
# iron [4] = experiment: Iron clearance in the iron-overloaded Cebus apella monkey; type: in vivo; conditions: as sodium salt
# Experimental: The monkeys were iron overloaded with intravenous iron dextran to provide about 500 mg iron per kg body weight. The serum transferrin iron saturation rose to between 70 and 80%. At least twenty half-lives, sixty days, elapsed before any of the animals were used in experiments evaluating iron-chelating agents.
# Fecal and urine samples were collected at 24 hour intervals and processed. Briefly, the collections began 4 days prior to the administration of the test drug and continued for an additional 5 days after the drug was given. Iron concentrations were determined by flame atomic absorption spectroscopy.
# as §2, §3
# [5] = Table 1, A734, six-minute reaction, pH 7.4, 1.25 to 15 μM
smiles,measurement,setting,value
"O=C(O)CN(CC(=O)O)CC(=O)O [NTA, nitrilotriacetic acid]",effect on ascorbate-mediated reduction of Fe(III) (in words),[1],profoundly stimulatory effect; also recorded: promoted ascorbate-mediated reduction of Fe(III)
same,effect on ascorbate-mediated reduction of Fe(III) (in words),[1]; listed as nitrilotriacetic acid,increased the rate of iron(III) reduction
"Nc1ccc(O)c(C(=O)O)c1 [Compound 5-ASA, 5-aminosalicylic acid]",Slope × 10^3 OD units/μM (ABTS radical cation quenching),[2]; [5],−34.4 × 10^3 OD units/μM
same,effect on ascorbate-mediated reduction of Fe(III) (in words),[1],promoted ascorbate-mediated reduction of Fe(III)
same,effect on ascorbate-mediated reduction of Fe(III) (in words),[1]; listed as 5-aminosalicylic acid,increased the rate of iron(III) reduction
C[C@]1(C(=O)O)CSC(c2ccccc2O)=N1 [DADFT],Slope × 10^3 OD units/μM (ABTS radical cation quenching),[2]; [5],−25.1 × 10^3 OD units/μM
"COCCOCCOCCN(O)C(C)=O [decyl hydroxamate, N-hydroxy,N-(3,6,9-trioxadecyl)acetamide]",effect on ascorbate-mediated reduction of Fe(III) (in words),[1],increased the rate of iron(III) reduction
"O=C(O)[C@H]1CSC(c2cc(CCCOCCCOCCCc3cc(C4=N[C@@H](C(=O)O)CS4)c(O)cc3O)c(O)cc2O)=N1 [BDU, (S,S)-1,11-Bis[5-(4-carboxyl-4,5-dihydro-1,3-thiazol-2-yl)-2,4-dihydroxyphenyl]-4,8-dioxaundecane]","% bile (of iron excreted), rodents",iron [3]; 150 μmol/kg po,80%
same,"% urine (of iron excreted), rodents",iron [3]; 150 μmol/kg po,20%
same,efficiency in rodents (%),iron [3]; 150 μmol/kg po,0.9±0.4%
same,"% bile (of iron excreted), rodents",iron [3]; 150 μmol/kg sc,95%
same,"% urine (of iron excreted), rodents",iron [3]; 150 μmol/kg sc,5%
same,efficiency in rodents (%),iron [3]; 150 μmol/kg sc,6.5±2.0%
same,Slope × 10^3 OD units/μM (ABTS radical cation quenching),"[2]; Table 3, A734, 6-min reaction, values marked b are the inventors' unpublished results",−136 × 10^3 OD units/μM
same,"% stool (of iron excreted), monkeys",iron [4]; 75 μmol/kg sc,98%
same,"% urine (of iron excreted), monkeys",iron [4]; 75 μmol/kg sc,2%
same,efficiency in monkeys (%),iron [4]; 75 μmol/kg sc,3.2±1.8% and 3.2 ± 1.8^g %
same,"% urine (of iron excreted), monkeys","iron [4]; 150 μmol/kg sc, n = 3",0%
same,efficiency in monkeys (%),"iron [4]; 150 μmol/kg sc, n = 3","2.1±1.4% and 2.1 ± 1.4^g,h %"
same,effect on ascorbate-mediated reduction of Fe(III) (in words),[1],significant protection
"O=C(O)C1CSC(c2ccccc2O)=N1 (stereo not drawn) [DADMDFT, desazadesmethyldesferrithiocin]",Slope × 10^3 OD units/μM (ABTS radical cation quenching),[2]; [5],−28.1 × 10^3 OD units/μM
